From US11685714B2, “Prodrugs of cytotoxic active agents having enzymatically cleavable groups” (BAYER PHARMA AKTIENGESELLSCHAFT, priority 2016, dated 2023)

Legend:
[1] = Stability in rat liver lysosomes (chapter C1c); format: in vitro ADME
[2] = Assay for determination of stability in rat plasma; format: in vitro ADME; conditions: 1 μg/ml, 37° C., 24 h
Description: To examine the stability of compounds A and B, 1 ml of rat plasma in a 1.5 ml Eppendorf tube in each case was equilibrated to 37° C. on an Eppendorf shaker. A stock solution (9 acetonitrile/1 DMSO) having a concentration of 100 μg/ml for compound A and compound B was prepared. 10 μl in each case of the stock solution were pipetted into 1 ml of equilibrated rat plasma, so as to give a concentration of 1 μg/ml.
The samples were kept at 450 rpm and 37° C. for 24 h. At each of the sampling times of 0, 0.25 h, 0.5 h, 1 h, 2 h, 4 h, 6 h and 24 h, 50 μl were taken and pipetted into 150 μl of methanol. Internal standard was included in the initial charge of methanol at a concentration of 0.05 μg/ml. After brief vortexing, 300 μl of 10 mM ammonium acetate buffer (pH 6.8) were added and centrifuged at 1881 g for 10 min. The samples were then analysed by means of RP-HPLC analysis and by LC-MS analysis.

[3] = Assay for determination of stability in rat liver lysosomes; format: in vitro ADME; conditions: over 24 h, 37° C.
Description: To determine the lysosomal stability of compounds A and B, lysosomal enzymes were isolated from rat liver cells. Compounds A and B were each added to this lysosomal extract in order to examine stability under lysosomal conditions. The proteolytic enzyme legumain is expressed only in a very small amount, if any, in rat liver lysosomes (Chen, J-M. et al 1997). To monitor the enzymatic activity of the lysosomal enzymes, a cathepsin-specific substrate was added.
First of all, a fresh rat liver was removed, weighed and immediately placed on ice in homogenization medium (0.25 M sucrose, 1 mM EDTA, 10 mM HEPES, pH7). The liver was comminuted and a change of medium was undertaken. The rat livers were homogenized with 4 times the amount of the rat liver weight at 750 rpm in a Potter (B. Braun). The homogenate was centrifuged at 1000 g for 10 min and the supernatant was filtered. In the next step, with the aid of an ultracentrifuge, the “light mitochondrial fraction” (LMF) was centrifuged out of the supernatant at 26 500 g over 20 min. […]
The sucrose was added from a 2.3 M stock solution of the particular percentage. […] To monitor the lysis, the protein content of the lysed lysosomal fraction was monitored with the aid of a BCA assays (Pierce BCA protein assay kit). […] For the RP-HPLC LCMS analysis, the samples were diluted with 300 μl of 10 mM ammonium acetate buffer (pH 6.8) and analysed.

[4] = test system: NCI-H292: human mucoepidermoid lung carcinoma cells; experiment: MTT assay on NCI-H292; format: cell-based; conditions: NCI-H292, 96 h, growth inhibition, 96 h incubation
Description: The analysis of the cytotoxic effects of the ADCs was carried out with various cell lines:
The cells were cultivated by the standard method as stated by the American Tissue Culture Collection (ATCC) or the Leibniz-lnstitut DSMZ-Deutsche Sammlung von Mikroorganismen und Zellkulturen GmbH (DSMZ) for the cell lines in question.
The cells were then incubated in an incubator at 37° C. and 5% carbon dioxide. […] To this end, the MTT reagent was incubated with the cells for 4 h, followed by lysis of the cells overnight by addition of the detergent. […] The measured data were used to calculate the ICo50 of the growth inhibition using the DRC (dose response curve). The proliferation of cells which were not treated with test substance but were otherwise identically treated was defined as the 100% figure.

CNC(=O)[C@H](CCN(C(=O)CO)[C@@H](c1cc(-c2cc(F)ccc2F)cn1Cc1ccccc1)C(C)(C)C)NC(=O)[C@H](CC(N)=O)NC(=O)[C@@H](C)NC(=O)[C@H](C)NC(=O)Cc1ccncc1 [Example R3r-LDL, N-(Pyridin-4-ylacetyl)-L-alanyl-D-alanyl-N^1-[(2S)-4-[{(1R)-1-[1-benzyl-4-(2,5-difluorophenyl)-1H-pyrrol-2-yl]-2,2-dimethylpropyl}(glycoloyl)amino]-1-(methylamino)-1-oxobutan-2-yl]-L-aspartamide]
stability in rat liver lysosomes (in words) [1]: high stability | stability in rat plasma [2]: stable over 24 h | stability in rat liver lysosomal extract [3]: stable | IC50 [4]: 190 nM
